We go through two compounds from patent US5661182A, “Method for lowering oxygen affinity of hemoglobin in redcell suspensions, in whole blood and in vivo” (Virginia Commonwealth University, priority 1995, dated 1997).

For data set [1], the system named is bovine red cells. In words: Hemolysis of bovine red cells in vitro. Type of data set: cell-based.
Data set [2] relates to HbA/Yakima red blood cells. In words: Calculated oxygen delivery index of HbA/Yakima red blood cells (ΔY). Type of data set: cell-based, human. The conditions noted are these: for ΔY (oxygen delivery index): HbA/Yakima RBC, 0.5 mM. On the procedure: Human blood was collected on heparin from healthy nonsmoking donors. Bovine blood was provided by Pr Delpech, INA (Paris-Grignon). Red blood cells were washed three times in isotonic buffer, kept at 4° C., and used within 24 h after sampling. Hemoglobin Yakima, a high-oxygen-affinity variant [α2 β2 99 (G1) Asp>>His], was obtained from a known heterozygous carrier. Fresh Yakima red cells were processed in the same way as described above.
In Vivo Estimates for Percent of Oxygen Delivery. Table 4 presents the calculated oxygen delivery index for red blood cell suspensions in the presence or absence of 0.5 mM L3,5 or RSR-4. The experimental conditions for the experiments of Table 4 were the same as those used for Table 1. The oxygen delivery index was calculated from the experimental oxygen binding curves as the difference in hemoglobin oxygen saturation (percent) corresponding to the pO2 in the arterial blood (90 mmHg) and that in the mixed venous blood (40 mMHg). HbA/Yakima red blood cells were obtained from a heterozygous carrier of the high-affinity Hb variant.

In data set [3] the test system is rat erythrocytes. In words: Hemolysis of rat erythrocytes.
The target of data set [4] is stored human RBCs (Homo sapiens, UniProt P68871+P69905). In words: Outdated blood studies: oxygen dissociation curves of stored red blood cells. Type of data set: cell-based. The note with it: for p50 / ΔY [Y(90%)-Y(40%)]: 40-day-old stored human RBCs. On the procedure: Outdated Blood Studies. For the outdated blood studies, 40-day-old packed red cells (80% hematocrit) were obtained from the blood bank at the Medical College of Virginia, Richmond, Va. The cells had been stored in Adsol formulation at 1°-4° C., pH 6.84. Fresh red cells obtained from volunteers were used for the control studies in Table III. The fresh red blood cells were centrifuged and washed with saline, pH 6.8. The oxygen dissociation curves were recorded on an Aminco Hem-O-Scan (Travenol Laboratories).
Outdated Blood Studies. The capability of RSR-13 to restore the oxygen affinity of stored blood was investigated. The procedure involved measurement of the oxygen equilibrium curves on red cell suspensions, which were stored in Adsol formulations at 4° C., in either the absence (controls) or presence of RSR-13. Table 3 presents the p50 (mmHg) and ΔY (%) [Y(90%)-Y(40%)] for outdated red blood cell suspensions (forty days) in the presence or absence of RSR-13.

SMILES strings stand for the structures. “Also recorded” adds a separate entry of the source.

Chain of stored human RBCs (P69905 whole entry): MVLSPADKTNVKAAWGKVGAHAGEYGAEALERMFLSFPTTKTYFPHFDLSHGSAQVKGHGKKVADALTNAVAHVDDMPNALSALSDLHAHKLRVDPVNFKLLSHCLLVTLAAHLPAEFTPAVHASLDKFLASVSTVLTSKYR
Chain of stored human RBCs (P68871 whole entry): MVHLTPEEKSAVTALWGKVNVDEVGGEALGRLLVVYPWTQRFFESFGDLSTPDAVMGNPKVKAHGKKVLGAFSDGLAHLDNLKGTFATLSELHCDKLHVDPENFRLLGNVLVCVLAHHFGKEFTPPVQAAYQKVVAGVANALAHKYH

As for `CC(C)(Oc1ccc(CC(=O)Nc2cc(Cl)cc(Cl)c2)cc1)C(=O)O` [RSR-4, 2-[4-[[(3,5-dichloroanilino)carbonyl]methyl]phenoxy]-2-methylpropionic acid], the hemolysis result in data set [1] is on record as “No hemolysis”; in data set [3], “Significant hemolysis”. Also, the “ΔY (oxygen delivery index)” value in data set [2] (50 μM HSA) is given as 19%; in data set [2] (no HSA) it was 22%. Besides, the “oxygen delivery restoration” value in data set [2] (red cells containing 47% Hb Yakima) is “able to restore an almost normal oxygen delivery; also recorded: almost normal oxygen delivery index”.

As to `Cc1cc(C)cc(NC(=O)Cc2ccc(OC(C)(C)C(=O)O)cc2)c1` [RSR-13], the “pH of RBC solution versus untreated samples” value in data set [4] (4 mM) is reported as “higher than that of untreated samples”. Moreover, in data set [4] (40-day-old RBC, 1 mM, or added prior to measurements or during storage), the “restoration / preservation of oxygen transport capabilities” value is “able to restore, to near normal the oxygen transport capabilities (p50 and ΔY) of 40-day-old red blood cells; also recorded: preserved the oxygen delivery capabilities of red cell hemoglobin”. In data set [4] (1 mM), the p50 stood at 39 mm Hg and the “ΔY [Y(90%)-Y(40%)]” value was 37%. Besides, in data set [4] (2 mM), the p50 was 45 mm Hg and the “ΔY [Y(90%)-Y(40%)]” value is 40%. For the same compound, in data set [4] (stored human red cells, end of experiments), the hemolysis entry is listed as “no indication of hemolysis”.
